Assay results reported in patent publication US9187406B2 (The Research Foundation of State University of New York, priority 2009, dated 2015).
Like-named read-outs stand apart in the source and are kept apart here.

Key:
purified human PMN MMP-8 = purified human PMN MMP-8 (Homo sapiens (Human), UniProt P22894); assay: MMP-8 inhibition, synthetic octapeptide substrate, tripeptide product by HPLC; type: biochemical
[1] = Extractability/recovery from human serum by HPLC; details: human
Method: Detection of compounds & extractability/recovery from human serum (for future use to determine in vivo pharmacokinetics) was achieved using HPLC. The HPLC detection method is briefly described herein. 50 μl of buffer or human serum containing 166.67 μM, 16.67 μM and 1.67 μM of the compounds were incubated with 100 μl pre-cooled (−10° C.) extraction solvent containing CAN-MeOH-0.5M oxalic acid at a ratio of 60:30:10. The mixture was vortexed and centrifuged at 10,000 rpm for 10 min. The supernatant was then aliquoted and injected into an HPLC for analysis. Stock solutions of the compounds were made 100× in DMSO, then further diluted with buffer or serum.

human monocytes [2] = assay: Cytotoxicity in human monocytes (MTS); type: cell-based
Method: Briefly, human peripheral blood monocytes (HMs) were isolated from a leukocyte concentrate by density gradient centrifugation (Lymphoprep) and the isolated HMs cultured (2 h, 37° C.) to remove non-adherent cells. The adherent HMs were cultured for 18 h (1×10^6 cells/well, 24-well plates)±endotoxin (LPS)±different compounds dissolved in DMSO (the final concentration of DMSO in the RPMI serum-free culture media with Pen./Strep. antibiotics was no greater than 0.5%). After incubation, the proinflammatory cytokines, TNFα, IL-1β, MCP-1 and IL-6 were measured in the conditioned media by ELISA and cytotoxicity was assessed by measuring the absorbance (490 nm) of formazan produced by reduction of MTS. The HMs alone ±0.1-0.5% DMSO produced minimal levels of these pro-inflammatory cytokines. However, addition of 100 ng/ml or 10 μg/ml of LPS both dramatically stimulated cytokine production.

MCP-1, TNFα, VEGF = assay: Cytokine and growth factor levels in LPS-challenged human monocytes, Luminex multiplex; type: cell-based; details: 2 μM, FIG. 2
Method: The cytokine levels were measured by Luminex multiplex, a method that allows the simultaneous measurement of different biological markers.

p38 MAP kinase = p38 MAP kinase activation; type: cell-based, human; details: preliminary studies
[3] = target: MMP-9 (human leukocyte gelatinase) (Homo sapiens (Human), UniProt P14780); assay: MMP-9 inhibition in vitro, octapeptide/HPLC; type: biochemical
Excerpt: In contrast all three chemically-modified curcumins at 100 μm final concentration inhibited gelatinase activity by 68-100% (FIG. 6 and Table 6).

[4] = target: chromatographically-purified MMP-2 (Homo sapiens (Human), UniProt P08253); assay: MMP-2 inhibition in vitro, octapeptide/HPLC; type: biochemical
[5] = Solubility in aqueous solutions; type: physicochemical
[6] = Diabetic rat model, 1-week oral treatment: serum glucose; type: in vivo; details: diabetic rats, 100 mg/kg oral once/day for 7 days
Excerpt: The purpose of the following was to establish an in vivo model of excessive collagen degradation to be used to test efficacy of the compounds of the subject invention. Male Sprague-Dawley rats (typically 300-400 gms of body weight), specific viral antibody free, were ordered from Charles River. Following general anesthesia via isoflurane anesthetic inhalation, diabetes was induced by an I.V. administration of streptozotocin (STZ) (50* mg/kg body weight) (Sigma Chemical Co., St Louis, Mo., USA) diluted in 0.9% citrated saline (pH 4.5), after 12 hours of fasting. After the streptozotocin injection, the animals were given free access to water and food. […] In this test, the test-paper color changes to dark brown which indicates glycosuria.
The latter assays were carried out using Western blot analysis with monoclonal antibodies to MMP-8.

[7] = target: MMP-2 (72 kDa gelatinase) (Rattus norvegicus (Rat), UniProt P33436); assay: Diabetic rat model, 1-week oral treatment: plasma MMP-2 by gelatin zymography; type: in vivo; details: diabetic rats, 100 mg/kg oral once/day for 7 days
[8] = target: T1, MMP-9 (92 kDa gelatinase) (Rattus norvegicus (Rat), UniProt P50282); assay: Diabetic rat model, 1-week oral treatment: plasma MMP-9 by gelatin zymography; type: in vivo; details: diabetic rats, 100 mg/kg oral once/day for 7 days
diabetic rats = assay: Diabetic rat model, 1-week oral treatment: diabetic adverse events; type: in vivo; details: 100 mg/kg oral once/day for 7 days, n = 6
[9] = Diabetic rat model, 3-week oral treatment: blood glucose and hemoglobin A1c; type: in vivo; details: diabetic rats, 100 mg/kg and 500 mg/kg oral daily, 3 weeks
Method: (§1) At the end of the treatment protocol, the rats were sacrificed, blood samples were collected, and whole skin (except over limbs) and gingiva were dissected (the skin, because of ample quantities of tissue were analyzed for each rat separately; the gingiva, because of the tiny amounts that could be harvested per rat, were pooled for each experimental group, as prescribed previously for tetracycline studies (30). In addition, the jaw bones were collected, defleshed, and bone loss around the teeth analyzed morphometrically as described previously (42, 43).

[10] = target: T1, MMP-9 (92 kDa gelatinase); assay: Diabetic rat model, 3-week oral treatment: gingival MMP-9 by gelatin zymography; type: in vivo; details: diabetic rats, 100 mg/kg and 500 mg/kg oral daily, 3 weeks
Method: as §1
(§2) This appearance of MMP-9 only in the gingiva (FIG. 10), but not the skin (FIG. 12), of the diabetic rats is likely the result of the oral bacteria inducing inflammation in the gingiva of these immune-suppressed UD rats, whereas the skin is not exposed to this onslaught of bacteria particularly the anaerobic gram-negative bacteria in the mouth that cause periodontal and gingival inflammation.

MMP-2 (gelatinase A) = MMP-2 (gelatinase A) (Rattus norvegicus (Rat), UniProt P33436); assay: Diabetic rat model, 3-week oral treatment: gingival MMP-2 by gelatin zymography; type: in vivo; details: diabetic rats, oral daily, 3 weeks
Method: as §1, §2

IL-1β = assay: Diabetic rat model, 3-week oral treatment: gingival IL-1β by ELISA; type: in vivo; details: 3 weeks
Method: as §1

[11] = test system: alveolar (periodontal) bone loss in diabetic rats; assay: Diabetic rat model, 3-week oral treatment: alveolar bone loss, morphometric; type: in vivo; details: 3 weeks
Method: as §1
Alveolar bone loss (the signature pathologic event in inflammatory periodontal disease) was assessed in the defleshed jaws of the compound 1-treated (TX) and untreated rats.

MMP-2 = MMP-2 (Rattus norvegicus (Rat), UniProt P33436); assay: Diabetic rat model, 3-week oral treatment: skin MMP-2 by ELISA; type: in vivo; details: both low and high doses, 3 weeks
Method: as §1

[12] = test system: neonatal rat ventricular myocytes; assay: Hydrogen peroxide induced LDH release; type: cell-based; details: 10 μM, H2O2 100 μM
Method: (§3) Test compounds and concentrations (MMP inhibitors, MMPi): • 1. GM-6001: 10 μM • 2. ONO-4817: 10 μM • 3.
Neonatal rat ventricular myocytes, serum starved for 24 h, were treated with the inhibitors 1 h prior to the addition of 100 μM of hydrogen peroxide (Sigma). LDH release in the conditioned media was quantified using CytoTox-ONE Homogeneous Membrane Integrity Assay reagent (Promega) at the indicated time points.

[13] = test system: caspase-3 activity in neonatal rat ventricular myocytes; assay: Doxorubicin mediated caspase-3 activity; type: cell-based; details: 10 μM, doxorubicin 500 nM, 6 h and 24 h
Method: as §3
Neonatal rat ventricular myocytes, serum starved for 24 h, were treated with the inhibitors 1 h prior to the addition of 500 nM of doxorubicin (Sigma). At the indicated time points cells were washed with ice-cold phosphate buffered saline and lysed using RIPA buffer (Pierce) containing protease and phosphatase inhibitors (Sigma). Caspase-3 activity in the cell lysates was measured by incubation with 7-amino-4-trifluoromethyl coumarin (Enzo).

[14] = target: MMP-9 generated by PC-3 human prostate cancer cells (Homo sapiens (Human), UniProt P14780); assay: MMP-9 in conditioned media of PC-3 cells, gelatin zymography and Western blot; type: cell-based; details: 10 μM and 20 μM, 48 hr, serum-free media
Method: Compound 1 was evaluated in a cell culture model of cancer. […] After the incubation, aliquots of the conditioned media were assayed for MMP-9 (gelatinase B) by either of two techniques, gelatin zymography (in the presence of 2 or 10 mMCa^++) and Western blot (both assays used purified MMP-9, 92 kDa gelatinase, as a standard).

human monocytes [15] = assay: Cytotoxicity in human monocytes (MTS); type: cell-based; remark: listed apart in the source

purified human PMN MMP-8, sequence (P22894 101-467): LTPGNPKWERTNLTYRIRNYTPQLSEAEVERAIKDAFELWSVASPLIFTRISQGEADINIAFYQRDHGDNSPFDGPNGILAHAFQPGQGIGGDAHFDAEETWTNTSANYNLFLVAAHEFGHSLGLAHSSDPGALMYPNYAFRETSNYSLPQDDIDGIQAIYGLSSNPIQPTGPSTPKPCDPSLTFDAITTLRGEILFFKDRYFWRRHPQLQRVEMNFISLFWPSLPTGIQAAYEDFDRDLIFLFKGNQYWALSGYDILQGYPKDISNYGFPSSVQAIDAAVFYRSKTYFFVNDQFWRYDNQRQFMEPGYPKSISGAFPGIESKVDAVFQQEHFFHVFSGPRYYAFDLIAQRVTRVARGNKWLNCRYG
chromatographically-purified MMP-2, sequence (P08253 110-660): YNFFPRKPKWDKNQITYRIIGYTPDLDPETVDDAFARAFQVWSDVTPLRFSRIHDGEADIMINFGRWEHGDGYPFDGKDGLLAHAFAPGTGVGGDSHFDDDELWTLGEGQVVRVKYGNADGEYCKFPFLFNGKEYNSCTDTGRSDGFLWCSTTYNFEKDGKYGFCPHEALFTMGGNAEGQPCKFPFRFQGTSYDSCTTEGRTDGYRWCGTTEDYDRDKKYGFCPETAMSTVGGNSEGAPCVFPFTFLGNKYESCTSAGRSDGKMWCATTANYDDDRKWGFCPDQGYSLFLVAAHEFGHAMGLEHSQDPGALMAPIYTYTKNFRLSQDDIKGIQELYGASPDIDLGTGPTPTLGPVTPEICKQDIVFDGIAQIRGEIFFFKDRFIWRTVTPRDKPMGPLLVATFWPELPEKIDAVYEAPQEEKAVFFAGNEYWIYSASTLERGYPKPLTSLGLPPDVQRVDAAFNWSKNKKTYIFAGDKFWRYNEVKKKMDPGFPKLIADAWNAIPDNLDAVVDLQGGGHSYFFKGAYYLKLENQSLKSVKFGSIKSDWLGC
MMP-9 (human leukocyte gelatinase), sequence (P14780 94-707): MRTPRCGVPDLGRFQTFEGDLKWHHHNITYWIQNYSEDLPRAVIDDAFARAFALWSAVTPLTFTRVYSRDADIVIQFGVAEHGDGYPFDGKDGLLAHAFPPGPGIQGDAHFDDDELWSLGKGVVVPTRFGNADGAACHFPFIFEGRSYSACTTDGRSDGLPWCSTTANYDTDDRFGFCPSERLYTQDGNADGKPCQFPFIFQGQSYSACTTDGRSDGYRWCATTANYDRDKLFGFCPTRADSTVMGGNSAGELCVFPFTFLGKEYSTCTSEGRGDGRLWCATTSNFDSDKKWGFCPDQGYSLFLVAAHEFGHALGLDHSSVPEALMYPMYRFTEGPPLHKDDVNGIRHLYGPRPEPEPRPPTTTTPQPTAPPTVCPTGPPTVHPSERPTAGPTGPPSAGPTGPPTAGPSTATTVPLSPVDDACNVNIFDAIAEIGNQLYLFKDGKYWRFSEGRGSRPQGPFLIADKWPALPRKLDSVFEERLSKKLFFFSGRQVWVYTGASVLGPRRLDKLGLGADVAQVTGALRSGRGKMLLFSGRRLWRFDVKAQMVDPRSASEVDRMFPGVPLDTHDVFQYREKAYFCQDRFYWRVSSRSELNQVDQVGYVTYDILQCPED

COC(=O)C(C(=O)/C=C/c1ccc(O)c(OC)c1)C(=O)/C=C/c1ccc(O)c(OC)c1 [Compound 1, 1,7-Bis(4-hydroxy-3-methoxyphenyl)-4-methoxycarbonylhepta-1E,6E-dien-3,5-dione]
IC50 (purified human PMN MMP-8; Example 7 experiment, 1 mM Ca++, 37° C., read-out: IC50, human neutrophil collagenase (MMP-8)): 10 µM | IC50 against purified hMMP-8 (purified human PMN MMP-8; Table 1 experiments): equivalent to that of 1,10-O-phenanthroline | IC50 (purified human PMN MMP-8; Table 1 experiments, read-out: IC50 against purified hMMP-8): 35 µM | Recovery from human serum [1]: 76-80% | Cytotoxicity Monocytes @ 18 h incubation (human monocytes [2]; 25 uM): 25 uM- 45.5% | Cytotoxicity Monocytes @ 18 h incubation (human monocytes [2]; 50 uM): 50 uM- 53% | Reduction of proinflammatory cytokines and growth factors (MCP-1, TNFα, VEGF) (MCP-1, TNFα, VEGF): potent in reducing proinflammatory cytokines such as MCP-1 and TNFα and growth factors such as VEGF | Effect on p38 MAP kinase activation (p38 MAP kinase): little/no effect | IC50 [3]: 16 µM | Maximum Inhibition @ 100 μM, MMP-2 ([4]; 100 μM): 78% | IC50 ([4]; read-out: IC50 MMP-2): 48 µM | Solubility in aqueous solutions (comparative) [5]: more soluble than the insoluble natural product curcumin | Effect on severity of hyperglycemia (serum glucose) [6]: no effect on the severity of hyperglycemia | Plasma MMP-2 level [7]: reduced the excessive levels of MMPs to essentially normal levels | Plasma MMP-9 level [8]: reduced the excessive levels of MMPs to essentially normal levels | Description of AEs (diabetic rats): Minor inflamed sclera | Incidence of Adverse Events (AEs) (diabetic rats): 1/6 | Effect on blood glucose and hemoglobin A1c levels [9]: no significant effect | MMP-9 level in gingiva [10]: reduced MMP-9 to the undetectable levels | Pro- and activated-forms of MMP-2 in gingiva (MMP-2 (gelatinase A)): neither diabetes nor compound 1 appeared to have a detectable effect | Reduction of IL-1β in gingiva vs untreated diabetic (IL-1β; higher oral dose (500 mg/kg)): 95% | Reduction of IL-1β in gingiva vs untreated diabetic (IL-1β; lower oral dose (100 mg/kg)): about 18% | Reduction in alveolar bone loss vs untreated groups ([11]; 100 mg/kg oral, p<0.05): ~60% | Reduction in alveolar bone loss vs untreated groups ([11]; 500 mg/kg oral): less effective | Reduction of elevated MMP-2 level in skin (ELISA) (MMP-2): 28% | LDH release ([12]; 6 h): 24286±930 | Effect on LDH release ([12]; 24 h): less dramatic effect | Effect on caspase-3 activity mediated by doxorubicin [13]: None of the MMP inhibitors, including compound 1, negatively modulate caspase-3 activity | Production and/or activity of MMP-9 [14]: inhibited the production and/or activity of MMP-9 | Cytotoxicity Monocytes @ 5 h incubation (human monocytes [15]; 2 uM): 2 uM- 0% | Cytotoxicity Monocytes @ 5 h incubation (human monocytes [15]; 10 uM): 10 uM- 0% | Cytotoxicity Monocytes @ 5 h incubation (human monocytes [15]; 25 uM): 25 uM- 33%
